Patent US20240342292A1, “Compounds for the Degradation of EGFR Kinase” (BeiGene Switzerland GmbH, priority 2021, published 2024)

Key:
L858R/T790M/C797S EGFR = target: T1, L858R/T790M/C797S EGFR (Homo sapiens, UniProt P00533, C797S/L858R/T790M); assay: EGFR degradation HTRF assay in H1975-clone #25 (LTC) cells; type: cell-based; conditions: 16h treatment; for DC50: H1975 # 25-LTC (L858R/T790M/C797S), HTRF; for Dmax: NCI-H1975, H1975 # 25-LTC (L858R/T790M/C797S), maximum percentage of degradation
T1 construct: expressed in transfected cells; host or cells: H1975 clone #25 (lentiviral over-expression, endogenous EGFR knocked out by sgRNA)
T1 sequence (P00533 25-1210 T790M/C797S/L858R): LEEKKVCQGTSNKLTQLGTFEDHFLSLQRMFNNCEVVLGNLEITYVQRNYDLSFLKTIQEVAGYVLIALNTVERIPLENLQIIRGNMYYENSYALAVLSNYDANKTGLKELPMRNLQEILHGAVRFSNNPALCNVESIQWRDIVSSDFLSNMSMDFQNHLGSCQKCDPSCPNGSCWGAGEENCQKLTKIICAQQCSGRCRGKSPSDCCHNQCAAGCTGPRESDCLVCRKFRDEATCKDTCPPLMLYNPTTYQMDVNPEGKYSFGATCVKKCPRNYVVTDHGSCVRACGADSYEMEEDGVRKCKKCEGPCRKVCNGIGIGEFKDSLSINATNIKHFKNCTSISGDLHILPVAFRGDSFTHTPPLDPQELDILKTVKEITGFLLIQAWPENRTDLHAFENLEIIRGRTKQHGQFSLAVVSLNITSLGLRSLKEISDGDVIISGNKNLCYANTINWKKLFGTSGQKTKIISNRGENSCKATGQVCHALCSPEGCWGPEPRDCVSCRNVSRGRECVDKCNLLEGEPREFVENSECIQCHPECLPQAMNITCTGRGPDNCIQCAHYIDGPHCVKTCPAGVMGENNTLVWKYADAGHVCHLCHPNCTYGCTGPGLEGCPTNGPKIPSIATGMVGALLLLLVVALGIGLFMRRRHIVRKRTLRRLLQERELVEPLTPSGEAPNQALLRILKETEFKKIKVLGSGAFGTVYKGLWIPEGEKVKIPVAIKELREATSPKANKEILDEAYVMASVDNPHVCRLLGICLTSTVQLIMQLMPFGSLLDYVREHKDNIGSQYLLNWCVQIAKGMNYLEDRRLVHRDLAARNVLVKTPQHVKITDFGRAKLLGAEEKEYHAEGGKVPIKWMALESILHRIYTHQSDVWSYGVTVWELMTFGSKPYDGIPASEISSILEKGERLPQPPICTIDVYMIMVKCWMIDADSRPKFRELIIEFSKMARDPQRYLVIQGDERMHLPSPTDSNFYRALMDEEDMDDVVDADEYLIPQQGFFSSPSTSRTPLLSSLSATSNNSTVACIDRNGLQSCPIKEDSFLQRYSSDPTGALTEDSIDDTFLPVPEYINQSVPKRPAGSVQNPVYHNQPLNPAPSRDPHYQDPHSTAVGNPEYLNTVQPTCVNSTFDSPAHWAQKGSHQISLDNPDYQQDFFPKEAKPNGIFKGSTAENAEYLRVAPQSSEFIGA
Outline: (§1)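 H1975 clones stably overexpressing mutant EGFR by lentivirus, with endogenous EGFR knocked out by sgRNA and homozygosity confirmed by sequencing, were treated 16 h at 37 °C with compounds in 0.2% DMSO medium, 8 doses from 10 uM in 5-fold dilution. Lysates were read by HTRF (665/620 nm); DC50 came from a four-parameter fit.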

Del19/T790M/C797S EGFR = assay: EGFR degradation HTRF assay in H1975-clone #28 (DTC) cells; type: cell-based; conditions: H1975 # 28 DTC (Del19/T790M/C797S), 16h treatment; for DC50: HTRF; for Dmax (%): maximum percentage of degradation
Outline: as §1

DC50 (L858R/T790M/C797S EGFR) [pM]	Dmax (L858R/T790M/C797S EGFR) [%]	DC50 (Del19/T790M/C797S EGFR) [pM]	SMILES	Dmax (%) (Del19/T790M/C797S EGFR)
705	94	901	Cc1cc2cc(n1)-c1cnn(C)c1OCCC[C@@H](C)CN1/C(=N/C2=O)Nc2ccc(C(=O)N3CCC4(CC3)CN(C(=O)C3CN(c5cc(F)c([C@H]6CCC(=O)NC6=O)c(F)c5)C3)C4)cc21 [Example 221, (R)-3-(2,6-difluoro-4-(3-(7-((R,E)-1^1,2^6,7-trimethyl-3-oxo-5^2,53-dihydro-1^1H,5^1H-11-oxa-4-aza-5(2,1)-benzo[d]imidazola-2(2,4)-pyridina-1(4,5)-pyrazolacycloundecaphane-5^6-carbonyl)-2,7-diazaspirononane-2-carbonyl)azetidin-1-yl)phenyl)piperidine-2,6-dione]	85.41
1050	91.2	806	Cc1cc2cc(n1)-c1c(C)nn(C)c1OCCC[C@@H](C)CN1/C(=N/C2=O)Nc2ccc(C(=O)N(C)C3CCN(CCc4cc(F)c([C@H]5CCC(=O)NC5=O)c(F)c4)CC3)cc21 [Example 233, (R,E)-N-(1-(4-((R)-2,6-dioxopiperidin-3-yl)-3,5-difluorophenethyl)piperidin-4-yl)-N,1^1,1^3,2^6,7-penta methyl-3-oxo-5^2,5^3-dihydro-1^1H,5^1H-11-oxa-4-aza-5(2,1)-benzo[d]imidazola-2(2,4)-pyridina-1(4,5)-pyrazolacycloundecaphane-5^6-carboxamide]	86.73
602	93.2	565	Cc1cc2cc(n1)-c1cnn(C)c1OCCCCCN1/C(=N/C2=O)Nc2ccc(C(=O)N(C)C3CCN(CCc4cc(F)c([C@H]5CCC(=O)NC5=O)c(F)c4)CC3)cc21 [Example 238, (R,E)-N-(1-(4-(2,6-dioxopiperidin-3-yl)-3,5-difluorophenethyl)piperidin-4-yl)-N,1^1,2^6-trimethyl-3-oxo-5^2,5^3-dihydro-1^1H,5^1H-11-oxa-4-aza-5(2,1)-benzo[d]imidazola-2(2,4)-pyridina-1(4,5)-pyrazolacycloundecaphane-5^6-carboxamide]	83.62
321	93.2	352	Cc1cc2cc(n1)-c1cnn(C)c1OCCC[C@@H](C)CN1/C(=N/C2=O)Nc2ccc(C(=O)NC3CCN(CCc4cc(F)c([C@H]5CCC(=O)NC5=O)c(F)c4)CC3)cc21 [Example 242, (R,E)-N-(1-(4-((R)-2,6-dioxopiperidn-3-yl)-3,5-difluorophenethyl)piperidin-4-yl)-1^1,2^6,7-trimethyl-3-oxo-5^2,5′-dihydro-1^1H,5^1H-li-oxa-4-aza-5(2,1)-benzo[d]imidazola-2(2,4)-pyridina-1(4,5)-pyrazolacycloundecaphane-5^6-carboxamide]	88.18

More lines, now with the values behind:

SMILES	DC50 (L858R/T790M/C797S EGFR) [pM]	Dmax (L858R/T790M/C797S EGFR) [%]	DC50 (Del19/T790M/C797S EGFR) [pM]	Dmax (%) (Del19/T790M/C797S EGFR)
Cc1cc2cc(n1)-c1cnn(C)c1OCCC[C@@H](C)CN1/C(=N/C2=O)Nc2ccc(N(C)C3CCN(C4CCN(c5cc(F)c([C@H]6CCC(=O)NC6=O)c(F)c5)CC4)CC3)cc21 [Example 214, (R)-3-(2,6-difluoro-4-(4-(methyl((R,E)-1^1,2^6,7-trimethyl-3-oxo-5^2,5^3-dihydro-1^1H,5^1H-11-oxa-4-aza-5(2,1)-benzo[d]imidazola-2(2,4)-pyridina-1(4,5)-pyrazolacycloundecaphane-5-yl)amino)-[1,4′-bipiperidin]-1′-yl)phenyl)piperidine-2,6-dione]	2590	79.4	1320	72.32
Cc1cc2cc(n1)-c1cnn(C)c1OCCC[C@@H](C)CN1/C(=N/C2=O)Nc2ccc(CN3CCC(N4CCN(C(=O)[C@H]5CCN(c6ccc7c(c6)C(=O)N(C6CCC(=O)NC6=O)C7=O)C5)CC4)CC3)cc21 (some centres unmarked) [Example 216]	9550	81.8	3020	82.64
Cc1cc2cc(n1)-c1cnn(C)c1OCCC[C@@H](C)CN1/C(=N/C2=O)Nc2ccc(C(=O)N3CC4(C3)CN(C(=O)C3CN(c5cc(F)c([C@H]6CCC(=O)NC6=O)c(F)c5)C3)C4)cc21 [Example 229, (R)-3-(2,6-difluoro-4-(3-(6-((R,E)-1^1,2^6,7-trimethyl-3-oxo-5^2,5^3-dihydro-1^1H,5^1H-11-oxa-4-aza-5(2,1)-benzo[d]imidazola-2(2,4)-pyridina-1(4,5)-pyrazolacycloundecaphane-5^6-carbonyl)-2,6-diazaspiroheptane-2-carbonyl)azetidin-1-yl)phenyl)piperidine-2,6-dione]	1270	86.9	1790	78.12
Cc1cc2cc(n1)-c1cnn(C)c1OCCC[C@@H](C)CN1/C(=N/C2=O)Nc2cc(F)c(C(=O)N(C)C3CCN(CCc4cc(F)c([C@H]5CCC(=O)NC5=O)c(F)c4)CC3)cc21 [Example 232, (R,E)-N-(1-(4-((R)-2,6-dioxopiperidin-3-yl)-3,5-difluorophenethyl)piperidin-4-yl)-5^5-fluoro-N,1^1,2^6,7-tetramethyl-3-oxo-5^2,5^3-dihydro-1^1H,5^1H-11-oxa-4-aza-5(2,1)-benzo[d]imidazola-2(2,4)-pyridina-1(4,5)-pyrazolacycloundecaphane-5^6-carboxamide]	318	92	292	82.7
Cc1cc2cc(n1)-c1cnn(C)c1OCCC1CC1CN1/C(=N/C2=O)Nc2ccc(C(=O)N(C)C3CCN(CCc4cc(F)c([C@H]5CCC(=O)NC5=O)c(F)c4)CC3)cc21 (stereo partly drawn) [Example 234, (E)-N-(1-(4-((R)-2,6-dioxopiperidin-3-yl)-3,5-difluorophenethyl)piperidin-4-yl)-N,1^1,2^6-trimethyl-3-oxo-5^2,5^3-dihydro-1^1H,5^1H-10-oxa-4-aza-5(2,1)-benzo[d]imidazola-2(2,4)-pyridina-1(4,5)-pyrazola-7(1,2)-cyclopropanacyclodecaphane-5^6-carboxamide]	1090	90.1	637	85.75
Cc1cc2cc(n1)-c1cnn(C)c1OCCCC1(CC1)CN1/C(=N/C2=O)Nc2ccc(C(=O)N(C)C3CCN(CCc4cc(F)c([C@H]5CCC(=O)NC5=O)c(F)c4)CC3)cc21 [Example 236, (R,E)-N-(1-(4-(2,6-dioxopiperidin-3-yl)-3,5-difluorophenethyl)piperidin-4-yl)-N,1′,6′-trimethyl-3′-oxospiro[cyclopropane-1,7′-11-oxa-4-aza-5(2,1)-benzo[d]imidazola-2(2,4)-pyridina-1(4,5)-pyrazolacycloundecaphane]-6′-carboxamide]	546	88.4	420	87.56
Cc1cc2cc(n1)-c1cnn(C)c1OCCC[C@@H](C)CN1/C(=N/C2=O)Nc2ccc(C(=O)N(C3CC3)C3CCN(CCc4cc(F)c([C@H]5CCC(=O)NC5=O)c(F)c4)CC3)cc21 [Example 239, (R,E)-N-cyclopropyl-N-(1-(4-((R)-2,6-dioxopiperidin-3-yl)-3,5-difluorophenethyl)piperidin-4-yl)-1^1, 2^6,7-trimethyl-3-oxo-5^2,5^3-dihydro-1^1H,5^1H-11-oxa-4-aza-5(2,1)-benzo[d]imidazola-2(2,4)-pyridina-1(4,5)-pyrazolacycloundecaphane-5^6-carboxamide]	604	87.9	205	83.87
CCN(C(=O)c1ccc2c(c1)N1C[C@H](C)CCCOc3c(cnn3C)-c3cc(cc(C)n3)C(=O)/N=C/1N2)C1CCN(CCc2cc(F)c([C@H]3CCC(=O)NC3=O)c(F)c2)CC1 [Example 241, (R,E)-N-(1-(4-((R)-2,6-dioxopiperidin-3-yl)-3,5-difluorophenethyl)piperidin-4-yl)-N-ethyl-1^1,2^6,7-trimethyl-3-oxo-5^2,5^3-dihydro-1^1H,5^1H-li-oxa-4-aza-5(2,1)-benzo[d]imidazola-2(2,4)-pyridina-1(4,5)-pyrazolacycloundecaphane-5^4-carboxamide]	403	87.7	328	76.68
Cc1cc2cc(n1)-c1cnn(C)c1OCCC[C@@H](C)CN1/C(=N/C2=O)Nc2ccc(C(=O)N(C)[C@@H]3CCN(CCc4cc(F)c([C@H]5CCC(=O)NC5=O)c(F)c4)C[C@H]3O)cc21 [Example 243, (R,E)-N-((3R,4R)-1-(4-((R)-2,6-dioxopiperidin-3-yl)-3,5-difluorophenethyl)-3-hydroxypiperidin-4-yl)-N,1^1,2^6,7-tetramethyl-3-oxo-5^2,5^3-dihydro-1^1H,5^1H-11-oxa-4-aza-5(2,1)-benzo[d]imidazola-2(2,4) -pyridina-1(4,5)-pyrazolacycloundecaphane-5^6-carboxamide]	677	92.1	2900	86.39
CO[C@H]1CN(CCc2cc(F)c([C@H]3CCC(=O)NC3=O)c(F)c2)CC[C@H]1NC(=O)c1ccc2c(c1)N1C[C@H](C)CCCOc3c(cnn3C)-c3cc(cc(C)n3)C(=O)/N=C/1N2 [Example 244, (R,E)-N-((3S,4R)-1-(4-((R)-2,6-dioxopiperidin-3-yl)-3,5-difluorophenethyl)-3-methoxypiperidin-4-yl)-1^1,2^6,7-trimethyl-3-oxo-5^2,5^3-dihydro-1^1H,5^1H-li-oxa-4-aza-5(2,1)-benzo[d]imidazola-2(2,4)-pyridina-1(4,5)-pyrazolacycloundecaphane-5^6-carboxamide]	167	95.3	548	78.89
